Our source for the IC50 values is patent US20250084094A1 (Vertex Pharmaceuticals Incorporated, priority 2021, published 2025).

Each structure is given as a SMILES string.

This experiment concerns the target T1, APOL1 (Homo sapiens, UniProt O14791).
T1 sequence (O14791 1-398 S342G/I384M): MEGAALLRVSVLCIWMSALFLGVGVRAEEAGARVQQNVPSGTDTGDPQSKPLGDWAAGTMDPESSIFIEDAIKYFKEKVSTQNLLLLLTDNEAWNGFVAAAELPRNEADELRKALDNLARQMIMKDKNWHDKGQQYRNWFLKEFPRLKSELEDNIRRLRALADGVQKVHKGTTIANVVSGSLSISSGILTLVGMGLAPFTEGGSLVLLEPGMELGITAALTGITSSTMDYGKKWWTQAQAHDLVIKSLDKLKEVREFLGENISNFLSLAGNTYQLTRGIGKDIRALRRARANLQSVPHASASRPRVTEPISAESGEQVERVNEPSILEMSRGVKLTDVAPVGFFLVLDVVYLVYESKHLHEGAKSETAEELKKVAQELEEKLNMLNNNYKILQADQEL
Nature of the experiment: MultiTox-Fluor Multiplex Cytotoxicity Assay in tet-inducible APOL1 T-REx-HEK293 cells. The experiment is classed as cell-based. As to conditions: tet-inducible transgenic APOL1 T-REx-HEK293 cell lines, 50 ng/mL tet, 24 hours, ratio of dead to live cells; read-out: IP50 (nM) (i.e., IC50 for cell proliferation). The protocol:
The MultiTox-Fluor Multiplex Cytotoxicity Assay is a single-reagent-addition, homogeneous, fluorescence assay that measures the number of live and dead cells simultaneously in culture wells. The assay measures cell viability and cytotoxicity by detecting two distinct protease activities. The live-cell protease activity is restricted to intact viable cells and is measured using a fluorogenic, cell-permeant peptide glycyl-phenylalanylamino fluorocoumarin (GF-AFC) substrate. The substrate enters intact cells, where it is cleaved to generate a fluorescent signal proportional to the number of living cells. […] A second, cell-impermeant, fluorogenic peptide substrate (bis-AAF-R110 Substrate) is used to measure dead-cell protease that has been released from cells that have lost membrane integrity. A ratio of dead to live cells is used to normalize data.
Briefly, the tet-inducible transgenic APOL1 T-REx-HEK293 cell lines were incubated with 50 ng/mL tet to induce APOL1 in the presence of 3-(2-(4-fluorophenyl)-1H-indol-3-yl)-N-((3S,4R)-4-hydroxy-2-oxopyrrolidin-3-yl)propenamide at 10.03, 3.24, 1.13, 0.356, 0.129, 0.042, 0.129, 0.0045, 0.0015, 0.0005 μM in duplicate for 24 hours in a humidified 37° C. incubator. The MultiTox reagent was added to each well and placed back in the incubator for an additional 30 minutes. The plate was read on the EnVision plate reader. A ratio of dead to live cells was used to normalize, and data was imported, analyzed, and fit using Genedata Screener (Basel, Switzerland) software. Data was normalized using percent of control, no tet (100% viability), and 50 ng/mL tet treated (0% viability),and fit using Smart Fit. The reagents, methods, and complete protocol for the MultiTox assay are described below.
Human embryonic kidney (HEK293) cell lines containing a tet-inducible expression system (T-REx™; Invitrogen, Carlsbad, CA) and Adeno-associated virus site 1 pAAVS1-Puro-APOL1 G0 or pAAVS1-Puro-APOL1 G1 or pAAVS1-Puro-APOL1 G2 Clones G0 DC2.13, Gi DC3.25, and G2 DC4.44 were grown in a T-225 flask at ˜90% confluency in cell growth media (DMEM, 10% Tet-free FBS, 2 mM L-glutamine, 100 Units/mL penicillin-streptomycin, 5 μg/mL blasticidin S HCl, 1 μg/mL puromycin dihydrochloride). Cells were washed with DPBS and then trypsinized to dissociate from the flask. Media was used to quench the trypsin, cells were then pelleted at 200 g and resuspended in fresh cell assay media (DMEM, 2% Tet-free FBS, 2 mM L-glutamine, 100 Units/mL penicillin-streptomycin). Cells were counted and diluted to 1.17×10^6 cells/mL. 20 μL of cells (23,400/well) were dispensed in every well of a 384-well Poly-D-Lysine coated plate using the Multidrop dispenser. The plates were then incubated at room temperature for one hour.
Tetracycline is needed to induce APOL1 expression. 1 mg/mL tet stock in water was diluted to 250 ng/mL (5×) in cell assay media. 60 μL of cell assay media (no tet control) was dispensed in columns 1 and 24, and 60 μL of 5× tet in 384-PP-round bottom plate was dispensed in columns 2 to 23 with the Multidrop dispenser.
Assay ready plates from the Global Compound Archive were ordered using template 384_APOLICell_DR10n2_50 uM_v3. Compounds were dispensed at 200 nL in DMSO. The final top concentration was 10 μM with a 10 point 3-fold dilution in duplicate in the MultiTox assay.
20 μL was transferred from the 5× tet plate to the ARP and mixed, then 5 μL of 5× tet and the compounds were transferred to the cell plate and mixed using the Bravo. The cell plate was placed in the humidified 37° C. 5% CO2 incubator for 24 hours.
The MultiTox-Fluor Multiplex Cytotoxicity Assay was performed in accordance with the manufacturer's protocol. After cells were incubated with tet and compound for 24 hours, 25 μL of 1x MultiTox reagent was added to each well using the Multidrop dispenser; the plates were placed on a plate shaker (600 rpm) for 2 minutes, then centrifuged briefly and placed back in the 37° C. incubator for 30 minutes. […]
Regarding `C[C@H]1CC2(C[C@@H](c3cn(C)nn3)N1)OC(C(N)=O)c1cc(Cl)ccc12` (single isomer, unassigned) [Compound 40, (2′S,6′S)-6-chloro-2′-methyl-6′-(1-methyltriazol-4-yl)spiro[1H-isobenzofuran-3,4′-piperidine]-1-carboxamide], the IC50 is 50 to 500 nM.

Regarding `C[C@H]1CC2(C[C@@H](c3cn(C)nn3)N1)OC(C(N)=O)c1ccc(Cl)cc12` (single isomer, unassigned) [Compound 42, (2′S,6′S)-5-chloro-2′-methyl-6′-(1-methyltriazol-4-yl)spiro[1H-isobenzofuran-3,4′-piperidine]-1-carboxamide], the IC50 lay in the range of 50 to 500 nM.

On to `C[C@H]1C[C@@]2(C[C@@H](c3cn(C)nn3)N1)OCCc1cc(O)c(Cl)cc12` [Compound 1], for which the IC50 is more than 500 nM.

Turning to `C[C@H]1C[C@@]2(C[C@@H](c3cn(C)nn3)N1)OCCc1ccc(Cl)c(O)c12` [Compound 2], the IC50 was less than 50 nM.

On to `C[C@H]1C[C@@]2(C[C@@H](c3cnn(CCS(C)(=O)=O)c3)N1)OCCc1cc(O)c(Cl)cc12` [Compound 3], for which the IC50 was more than 500 nM.

Consider `C[C@H]1C[C@@]2(C[C@@H](c3ccn(CCS(C)(=O)=O)c3)N1)OCCc1ccc(Cl)c(O)c12` [Compound 4], for which the IC50 lay in the range of 50 to 500 nM.

With `COc1ccc2c(c1)CCO[C@@]21C[C@@H](c2cn(C)nn2)N[C@@H](C)C1` [Compound 5], the IC50 was less than 50 nM.

With `COc1cccc2c1[C@]1(C[C@@H](c3cn(C)nn3)N[C@@H](C)C1)OCC2` [Compound 6], the IC50 was more than 500 nM.

As to `C[C@H]1C[C@@]2(C[C@@H](c3cn(C)nn3)N1)OCCc1cc(O)ccc12` [Compound 7], the IC50 lay in the range of 50 to 500 nM.

With `C[C@H]1C[C@@]2(C[C@@H](c3cn(C)nn3)N1)OCCc1cccc(O)c12` [Compound 8], the IC50 is 50 to 500 nM.

Take `C[C@H]1C[C@@]2(C[C@@H](c3cn(C)nn3)N1)OCCc1cc(Br)ccc12` [Compound 9]: the IC50 was less than 50 nM.

Turning to `C[C@H]1C[C@@]2(C[C@@H](c3cn(C)nn3)N1)OCCc1ccc(Cl)cc12` [Compound 10], the IC50 was less than 50 nM.

Consider `C[C@H]1C[C@@]2(C[C@@H](c3cn(C)nn3)N1)OCCc1ccc(C#N)cc12` [Compound 11], for which the IC50 was 50 to 500 nM.

As to `C[C@H]1C[C@@]2(C[C@@H](c3cn(C)nn3)N1)OCCc1ccccc12` [Compound 12], the IC50 is less than 50 nM.

`CCc1ccc2c(c1)[C@]1(C[C@@H](c3cn(C)nn3)N[C@@H](C)C1)OCC2` [Compound 13, (1S,2′S,6′S)-7-ethyl-2′-methyl-6′-(1-methyl-1H-1,2,3-triazol-4-yl)spiro[isochromane-1,4′-piperidine]]: the IC50 was less than 50 nM.

Regarding `C[C@H]1C[C@@]2(C[C@@H](c3cn(C)nn3)N1)OCCc1cc(OS(=O)(=O)C(F)(F)F)ccc12` [Compound 14], the IC50 lay within 50 to 500 nM.

Consider `C[C@H]1C[C@@]2(C[C@@H](c3cn(C)nn3)N1)OCCc1cc(Cl)ccc12` [Compound 15], for which the IC50 was less than 50 nM.

Take `Cc1ccc2c(c1)CCO[C@@]21C[C@@H](c2cn(C)nn2)N[C@@H](C)C1` [Compound 16]: the IC50 was less than 50 nM.

For `CCc1ccc2c(c1)CCO[C@@]21C[C@@H](c2cn(C)nn2)N[C@@H](C)C1` [Compound 17], the IC50 is less than 50 nM.

As for `CC(C)c1ccc2c(c1)CCO[C@@]21C[C@@H](c2cn(C)nn2)N[C@@H](C)C1` [Compound 18], the IC50 is less than 50 nM.

In the case of `COC(=O)c1ccc2c(c1)CCO[C@@]21C[C@@H](c2cn(C)nn2)N[C@@H](C)C1` [Compound 19], the IC50 is more than 500 nM.

For the compound `C[C@H]1C[C@@]2(C[C@@H](c3cn(C)nn3)N1)OCCc1cc(C(C)(C)O)ccc12` [Compound 20], the IC50 fell in the range of 50 to 500 nM.

Take `C[C@H]1C[C@@]2(C[C@@H](c3cn(C)nn3)N1)OCCc1cc(C#N)ccc12` [Compound 21]: the IC50 was in the range of 50 to 500 nM.

As to `C[C@H]1C[C@@]2(C[C@@H](c3cn(C)nn3)N1)OCCc1cc(CO)ccc12` [Compound 22], the IC50 was more than 500 nM.

Regarding `C[C@H]1C[C@@]2(C[C@@H](c3cn(C)nn3)N1)OCCc1cc(C(F)(F)F)ccc12` [Compound 23], the IC50 was less than 50 nM.

With `CC1CC2(CC(c3cnn(CCS(C)(=O)=O)c3)N1)OCCc1ccc(Cl)cc12` (stereo not drawn) [Compound 24], the IC50 was in the range of 50 to 500 nM.

For the compound `C[C@H]1C[C@@]2(C[C@@H](c3cn(C)nn3)N1)OC[C@@H](O)c1cc(Cl)ccc12` [Compound 25], the IC50 is less than 50 nM.

`C[C@H]1C[C@@]2(C[C@@H](c3cn(C)nn3)N1)OC[C@H](O)c1cc(Cl)ccc12` [Compound 26]: the IC50 is less than 50 nM.

For `C[C@H]1C[C@@]2(C[C@@H](c3cn(C)nn3)N1)OC[C@@H](O)c1cc(C(F)(F)F)ccc12` [Compound 27, (1S,2′S,4S,6′S)-2′-methyl-6′-(1-methyl-1H-1,2,3-triazol-4-yl)-6-(trifluoromethyl)spiro[isochromane-1,4′-piperidin]-4-ol], the IC50 is less than 50 nM.

For the compound `C[C@H]1C[C@@]2(C[C@@H](c3cn(C)nn3)N1)OC[C@H](O)c1cc(C(F)(F)F)ccc12` [Compound 28, (1S,2′S,4R,6′S)-2′-methyl-6′-(1-methyl-1H-1,2,3-triazol-4-yl)-6-(trifluoromethyl)spiro[isochromane-1,4′-piperidin]-4-ol], the IC50 was less than 50 nM.

For the compound `C[C@H]1C[C@@]2(C[C@@H](c3cn(C)nn3)N1)OCC(O)c1ccc(Cl)cc12` (stereo partly drawn) [Compound 29], the IC50 lay within 50 to 500 nM.

Turning to `C[C@H]1C[C@@]2(C[C@@H](c3cn(C)nn3)N1)OCC(O)c1ccc(Cl)cc12` (stereo partly drawn) [Compound 30, (1S,2′S,6′S)-7-chloro-2′-methyl-6′-(1-methyl-1H-1,2,3-triazol-4-yl)spiro[isochromane-1,4′-piperidin]-4-ol], the IC50 lay within 50 to 500 nM.

Regarding `C[C@H]1C[C@]2(C[C@@H](c3cn(C)nn3)N1)C(=O)Nc1ccccc12` [Compound 31, (2′S,3R,6′S)-2′-methyl-6′-(1-methyltriazol-4-yl)spiro[indoline-3,4′-piperidine]-2-one], the IC50 was more than 500 nM.

In the case of `C[C@H]1C[C@@]2(C[C@@H](c3cn(C)nn3)N1)C(=O)Nc1ccccc12` [Compound 32, (2′S,3S,6′S)-2′-methyl-6′-(1-methyltriazol-4-yl)spiro[indoline-3,4′-piperidine]-2-one], the IC50 is less than 50 nM.

As for `Cc1ccc2c(c1)NC(=O)[C@@]21C[C@@H](c2cn(C)nn2)N[C@@H](C)C1` [Compound 33, (2′S,3S,6′S)-2′,6-dimethyl-6′-(1-methyltriazol-4-yl)spiro[indoline-3,4′-piperidine]-2-one], the IC50 is less than 50 nM.

As for `Cc1ccc2c(c1)[C@]1(C[C@@H](c3cn(C)nn3)N[C@@H](C)C1)C(=O)N2` [Compound 34, (2′S,3S,6′S)-2′,5-dimethyl-6′-(1-methyltriazol-4-yl)spiro[indoline-3,4′-piperidine]-2-one], the IC50 was less than 50 nM.
